Assay results reported in paper PMC2869246 (Antiviral research, 2010).
Entries after “also recorded” stand apart in the source; their conditions may differ. Like-named read-outs stand apart in the source and are kept apart here.

Experiments:
[1] = ref Reddy et al., 2008; cited from earlier work
HBV [2] = experiment: HBV antiviral assay in HepG2.2.15 cells; assay type: cell-based, hepatitis B virus; details: for effect of addition of 10uM mevalonate on anti-HBV effect: 10uM mevalonate added
[3] = Cytotoxicity by neutral red dye uptake in HepG2.2.15 cultures; assay type: cell-based; details: human, HepG2.2.15 cells
HepG2.2.15 = experiment: as above; assay type: cell-based; details: Table 2; monotherapy; neutral red uptake 24 hours after last treatment
HBV [4] = details: cited from earlier work; for anti-HBV activity: unpublished results
HBV surface antigen = details: Hep3B cell line with integrated S gene coding region; ref Lin et al., 2003; cited from earlier work
[5] = Hepatitis B virus, HepG2.2.15, Table 2 (separate experiment), monotherapy
[6] = Table 2 (separate experiment), monotherapy

## Nc1ncnc2c1ncn2CCOCP(=O)(O)O [ADV, adefovir]
[1]
  liver/serum ratios: 0.38

## Nc1ccn([C@@H]2CS[C@H](CO)O2)c(=O)n1 [LMV, lamivudine]
HBV [2]
  effect of addition of 10uM mevalonate on anti-HBV effect: did not affect the anti-HBV effectiveness; also recorded: nor did it reduce the anti-HBV effectiveness
HBV [2]; [5]
  EC50: 0.048 ± 0.005 µM
  EC90: 0.146 ± 0.017 µM
[3]
  CC50 at 9 days: 2320 ± 102 µM

## CC(O)(CCO)CC(=O)O (stereo not drawn) [Mevalonate]
HBV [2]; [6]
  EC50: > 10 µM
  EC90: > 10 µM
HBV [2]; monotherapy
  anti-HBV effect: did not display an anti-HBV effect
HepG2.2.15
  CC50: > 10 µM

## CCC(C)(C)C(=O)O[C@H]1C[C@@H](C)C=C2C=C[C@H](C)[C@H](CC[C@@H]3C[C@@H](O)CC(=O)O3)[C@H]21 [SIM, simvastatin]
HBV [2]
  effect of addition of 10uM mevalonate on anti-HBV effect: abolished the anti-HBV effect; also recorded: abolished the anti-HBV effectiveness
HBV [2]; [5]
  EC50: 2.8 ± 0.3 µM
  EC90: 8.1 ± 0.7 µM
HBV [2]; SIM alone, cell culture
  ED90: 8.6 µM
[3]
  CC50 at 9 days: > 300 µM

## CC(C)n1c(/C=C/C(O)CC(O)CC(=O)O)c(-c2ccc(F)cc2)c2ccccc21 (stereo not drawn) [fluvastatin]
HBV [4]; ref Korba
  anti-HBV activity: unable to make other statins work against HBV

## CC[C@H](C)C(=O)O[C@H]1C[C@@H](C)C=C2C=C[C@H](C)[C@H](CC[C@@H]3C[C@@H](O)CC(=O)O3)[C@H]21 [lovastatin]
HBV [4]; ref Lin et al., 2003
  anti-HBV activity (HBV virions in cell culture): unable to make other statins work against HBV; also recorded: could not demonstrate reduction of HBV virions
HBV surface antigen
  in vitro production of surface antigen inhibited: 60%

## CC[C@H](C)C(=O)O[C@H]1C[C@H](O)C=C2C=C[C@H](C)[C@H](CC[C@@H](O)C[C@@H](O)CC(=O)O)[C@H]21 [pravastatin]
HBV [4]; ref Bader
  anti-HBV activity: unable to make other statins work against HBV
